Data set [1] has as its target T1, mouse CB1R (Mus musculus, UniProt P47746).
T1 construct: membranes (10 μg protein) from either ICR mouse cerebellum mice; from tissue; host or cells: cerebellum membranes of ICR mice
Kind of data set: [35S]GTPγS binding assay in mouse cerebellum membranes. Conditions: for IC50: mouse cerebellum membrane, read-out: mCB1R GTPγS IC50. Type of data set: biochemical. For orientation: Binding of GTPγS marks nucleotide exchange on a G protein.
Experimental: (§1) [^35S]GTPγS Binding Assay: For receptor signaling, membranes (10 μg protein) from either ICR mouse cerebellum mice (6-8 weeks old; Enviga
(§2) Non-specific binding was determined by adding 30 μM unlabeled GTPyS. Concentration response curves for allosteric modulators were conducted in the presence of CP55,940 (100 nM or 1 μM) to calculate 1050 values.
(§3) For [^35S]GTPyS experiments, data were normalized to maximal CP55,940 (100 nM) stimulation in the absence of test compound (i.e., vehicle=100%).
Select compounds were evaluated in the CP55,940-induced [^35S]GTPyS binding assays using mouse cerebellum membrane at two CP55,940 concentrations, 100 nM and 1μM.

Data set [2] has as its target T2, hCB1R (Homo sapiens, UniProt P21554). Kind of data set: [35S]GTPγS binding assay in HEK cells stably expressing human CB1R. Type of data set: biochemical. On the set-up: expressed in transfected cells; host or cells: HEK (HEK293) cells, membranes. Conditions: [CP] = 100 nM, mean (95% confidence interval), read-out: hCB1R [35S]GTPγS binding assay IC50.
Experimental: as §1, §2, §3
The target in data set [3] is T2, hCB1R. The data set is described as follows: Calcium mobilization assay, antagonist mode against CP55,940. In kind it is cell-based. On the set-up: expressed in transfected cells; host or cells: CHO-RD-HGA16 cells (parental line from Molecular Devices). Conditions: CHO cells expressing human CB1R; against CP55,940 (100 nM); mean ± SEM; read-out: hCB1R Calcium assay IC50. (A change in cytosolic calcium serves as a functional read-out for many receptors and channels.)
Experimental: Calcium Mobilization Assay: CHO-RD-HGA16 cells (Molecular Devices, San Jose, Calif., United States of America) stably expressing the human CB1 receptor were plated into 96-well black-walled assay plates at 25,000 cells/well in 100 pL of Ham's F12 (supplemented with 10% fetal bovine serum, 100 units of penicillin/streptomycin, and 100 µg/mL Normocin) and incubated overnight at 37° C., 5% CO2. Calcium 5 dye (Molecular Devices, San Jose, Calif., United States of America) was reconstituted according to the manufacturer's instructions. The reconstituted dye was diluted 1:40 in prewarmed (37° C.) assay buffer (1x HBSS, 20 mM HEPES, 2.5 mM probenecid, pH 7.4 at 37° C.). Growth medium was removed, and the cells were gently washed with 100 pL of prewarmed (37° C.) assay buffer. The cells were incubated for 45 min at 37° C., 5% CO2 in 200 pL of the diluted Calcium 5 dye solution. […] Serial dilutions of the test compounds were prepared at 10x the desired final concentration in 2.25% BSA/4.5% DMSO/4.5% EtOH/assay buffer. After the dye loading incubation period, the cells were pretreated with 25 pL of the test compound serial dilutions and incubated for 15 min at 37° C. After the pretreatment incubation period, the plate was read with a FLIPR Tetra (Molecular Devices, San Jose, Calif., United States of America). Calcium-mediated changes in fluorescence were monitored every 1 s over a 90 s time period, with the Tetra adding 25 pL of the CP55,940 EC80 concentration at the 10s time point (excitation/emission: 485/525 nm). Relative fluorescence units (RFU) were plotted against the log of compound concentrations. For agonist screens, the above procedure was followed except that cells were pretreated with 2.25% BSA/4.5% DMSO/4.5% EtOH/assay buffer and the Tetra added single concentration dilutions of the test compounds prepared at 10x the desired final concentration in 0.25% BSA/0.5% DMSO/0.5% EtOH/assay buffer. Test compound RFUs were compared to the CP55,940 Emax RFUs to generate % Emax values.
Data Analysis: For calcium mobilization experiments, data were fit to a three-parameter logistic curve to generate IC50 values (GraphPad Prism 6.0, Graphpad Software, San Diego, Calif., United States of America).

Data set [4] has as its target T2, hCB1R. The data set is described as follows: Real-time BRET CAMYEL cAMP assay in HEK293 cells expressing human CB1. In kind it is cell-based. On the set-up: expressed in transfected cells; host or cells: HEK293 cells stably transfected with human CB1, transiently transfected with pcDNA3L-His-CAMYEL sensor. The settings on record: for IC50: [CP] = 100 nM, forskolin-stimulated cAMP.
Experimental: cAMP Assay: The cAMP assay was performed as previously described. […] Briefly, forskolin (FSK)-stimulated cyclic adenosine monophosphate (cAMP) production was measured in real-time using a transfected bioluminescence resonance energy transfer (BRET) cAMP sensor. The plasmid encodes a cAMP binding domain (Epac1) flanked by yellow fluorescent protein (YFP) and Renilla Luciferase (RLuc) assay, the latter of which can oxidize coelenterazine H and produce a photon as a byproduct. When cAMP is bound to the Epac1 domain, it separates RLuc and YFP so only Rluc emits a photon at a wavelength of 460 nm. When cAMP is not bound, RLuc can excite YFP, emitting light at wavelength 535 nm. A plate reader measures both wavelengths and their ratio, 460/535, is calculated to quantify cAMP levels where increases in the ratio indicate increases in cAMP. Human Embryonic Kidney 293 (HEK293) cells stably transfected with the human cannabinoid type-1 (C131) were maintained at 37° C. at 5% CO2 and seeded in 100 mM dishes for transfection. The next day, cells were given fresh growth media and transfected with 5 pg of pcDNA3L-His-CAMYEL using linear polyethyleneimine (25 kDa, Polysciences, Warrington, Pennsylvania, United States of America) in 1:6 DNA:PEI (ATCC, Manassas, Virginia, United States of America) ratio. The next day, cells were lifted using 1 mM EDTA in PBS and spun down at 200xg for 5 min. The supernatant was removed, and cells were resuspended in growth media and plated on poly-D-lysine (Sigma Aldrich, St. Louis, Missouri, United States of America) coated white 96 well plates at 60,000 cells per well, filling 2 columns of 8 wells each per plate, i.e. 8 samples in duplicate per plate (Perkin Elmer, Waltham, Massachusetts,
United States of America). The following day, media was removed, cells were rinsed with PBS and buffers/reagents/drugs added as following: At 0 min, 175 of stimulation buffer (5 mg/ml bovine serum albumin in HBSS including Ca^2+ and Mg^2+); at 10 min, 25 μL of allosteric modulators added; at 15 min: 25 μL coelenterazine added (5 μM final); at 25 min, 25 μL of forskolin (10 final) with or without CP55,940 (100 nM final) added. […] Ratio of 460/535 is calculated for each time point and plotted across time and area under the curve analysis is conducted for each replicate and averaged by condition/day where each day serves as an independent experiment. Data were calculated as %FSK using the formula [(sample-basal)/(forskolin-basal)×100]. IC50 values were calculated from these normalized concentration-response data using Prism 6 (Graphpad Software, San Diego, Calif., United States of America) using 3 parameter non-linear regression. Data are plotted as mean of at least N=3 independent experiments either normalized to forskolin (concentration response data) or the calculated 460/535 BRET ratio (time course data).

The nature of data set [5]: Metabolic stability in rat liver microsomes. In kind it is in vitro ADME. As for the experimental part: Metabolic stability assessment: Compounds were incubated with rat liver microsomes at 37° C. for a total of 45 minutes. The reaction was performed at pH 7.4 in 100 mM potassium phosphate buffer containing 0.5 mg/mL of rat liver microsomal protein. Phase I metabolism was assessed by adding NADPH to a final concentration of 1 mM and collecting samples at time points 0, 5, 15, 30 and 45 minutes. All collected samples were quenched 1:1 with ice-cold stop solution (1 μM labetalol and 1 μM glyburide in acetonitrile) and centrifuged to remove precipitated protein. Resulting supernatants were further diluted 1:4 with acetonitrile:water (1:1). Samples were analyzed by LC/MS/MS and calculations for half-life, and in-vitro clearance were accomplished using Microsoft Excel (2007).
A general note: Liver microsomes are a subcellular fraction often used to study metabolism.

Data set [6] can be described thus: Kinetic solubility assessment. In kind it is physicochemical. Conditions: aqueous buffer, kinetic from dmso stock, phosphate buffer, 2 hours room temperature. The protocol:
The solution was agitated on a VX-2500 multi-tube vortexer (VWR International, Radnor, Pa., United States of America) for 2 hours at room temperature. Following agitation, the sample was filtrated on a glass-fiber filter (1 μm) and the eluate was diluted 400-fold with a mixture of acetonitrile: water (1:1). On each experimental occasion, nicardipine and imipramine were assessed as reference compounds for low and high solubility, respectively. All samples were assessed in triplicate and analyzed by LC-MS/MS using electrospray ionization against standards prepared in the same matrix.

For data set [7], the system named is MDCK-MDR1 cells. Kind of data set: Bidirectional MDCK-MDR1 permeability assay. Type of data set: in vitro ADME. Conditions: MDCK-MDR1, 10 μM test article. The protocol: Permeability Assessment. Bidirectional MDCK-MDR1 permeability assay was performed by Paraza Pharma Inc. (Montreal, Canada). MDCK-mdr1 cells at passage 5 were seeded onto permeable polycarbonate supports in 12-well Costar Transwell plates and allowed to grow and differentiate for 3 days. On day 3, culture medium (DMEM supplemented with 10% FBS) was removed from both sides of the transwell inserts and cells were rinsed with warm HBSS. After the rinse step, the chambers were filled with warm transport buffer (HBSS containing 10 mM HEPES, 0.25% BSA, pH 7.4) and the plates were incubated at 37° C. for 30 min prior to TEER (Trans Epithelial Electric Resistance) measurements.
The buffer in the donor chamber (apical side for A-to-B assay, basolateral side for B-to-A assay) was removed and replaced with the working solution (10 μM test article in transport buffer). The plates were then placed at 37° C. under light agitation. At designated time points (30, 60 and 90 min), an aliquot of transport buffer from the receiver chamber was removed and replenished with fresh transport buffer. Samples were quenched with ice-cold ACN containing internal standard and then centrifuged to pellet protein. Resulting supernatants are further diluted with 50/50 ACN/H2O (H2O only for Atenolol) and submitted for LC-MS/MS analysis. Reported apparent permeability (Papp) values were calculated from single determination.
Atenolol and propranolol were tested as low and […] permeability references.
The apparent permeability (Papp, measured in cm/s) of a compound is determined according to the following formula […]: […]
where dQ/dt is the net rate of appearance in the receiver compartment; A is the area of the Transwell measured in cm^2 (1.12 cm^2); Ci is the initial concentration of compound added to the donor chamber; and 60 is the conversion factor for minute to second.

Data set [8] concerns the target T2, hCB1R. Kind of data set: Intrinsic activity: basal [35S]GTPγS binding in the absence of CP55,940. In kind it is biochemical. The settings on record: up to 10 μM.

Where “and” joins values, the source holds several entries; their conditions need not be identical. Equal entries are not always repeated. Where two headings read alike, the source gives them in different places. A value given as a limit tells only on which side of the number the result lay.

T1 sequence (P47746 whole entry): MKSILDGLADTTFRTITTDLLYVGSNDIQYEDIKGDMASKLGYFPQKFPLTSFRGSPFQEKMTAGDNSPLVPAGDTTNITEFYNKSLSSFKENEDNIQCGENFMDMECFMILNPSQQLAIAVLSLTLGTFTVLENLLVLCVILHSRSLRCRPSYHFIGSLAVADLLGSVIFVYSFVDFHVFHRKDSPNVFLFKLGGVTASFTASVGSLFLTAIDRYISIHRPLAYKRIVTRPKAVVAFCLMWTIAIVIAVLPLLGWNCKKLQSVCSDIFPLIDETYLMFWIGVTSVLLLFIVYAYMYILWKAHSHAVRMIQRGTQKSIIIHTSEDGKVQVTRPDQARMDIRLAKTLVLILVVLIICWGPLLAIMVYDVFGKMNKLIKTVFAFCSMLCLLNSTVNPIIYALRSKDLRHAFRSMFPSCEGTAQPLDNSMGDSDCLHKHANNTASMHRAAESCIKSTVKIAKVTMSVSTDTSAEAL
T2 sequence (P21554 whole entry): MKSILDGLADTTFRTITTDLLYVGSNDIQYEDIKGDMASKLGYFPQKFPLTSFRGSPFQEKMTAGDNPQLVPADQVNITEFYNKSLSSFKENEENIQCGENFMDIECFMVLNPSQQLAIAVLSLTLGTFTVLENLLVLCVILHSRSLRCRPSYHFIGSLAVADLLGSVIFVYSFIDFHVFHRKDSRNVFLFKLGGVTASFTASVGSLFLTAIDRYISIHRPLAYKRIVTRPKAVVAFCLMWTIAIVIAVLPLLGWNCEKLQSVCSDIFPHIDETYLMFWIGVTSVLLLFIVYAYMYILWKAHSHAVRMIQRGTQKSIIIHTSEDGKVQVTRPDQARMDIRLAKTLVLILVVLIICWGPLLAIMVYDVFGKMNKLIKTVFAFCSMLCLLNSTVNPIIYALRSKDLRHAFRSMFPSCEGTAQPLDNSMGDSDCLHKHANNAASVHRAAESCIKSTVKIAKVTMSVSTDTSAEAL

For the compound `O=C(Nc1ccc(Cl)cc1)Nc1ccc(-c2cc(Cl)cc(Cl)c2)s1` [Compound 25, 1-(4-Chlorophenyl)-3-[5-(3,5-dichlorophenyl)thiophen-2-yl]urea], the IC50 was 3310 nM in data set [1] ([CP] = 100 nM); 2400 nM in data set [1] ([CP] = 1 uM); 6330 nM in data set [2]; 92 ± 12 nM in data set [3]; > 10000 nM in data set [4].

For the compound `O=C(Nc1ccc(Cl)cc1)Nc1ccc(-c2ccc(F)cc2)s1` [Compound 18, 1-(4-Chlorophenyl)-3-[5-(4-fluorophenyl)thiophen-2-yl]urea], the IC50 in data set [1] ([CP] = 100 nM) worked out at 174 nM; in data set [1] ([CP] = 1 uM), 145 nM; in data set [2] it was 537 nM; in data set [3] it was 40 ± 2 nM.

`O=C(Nc1ccc(Cl)cc1)Nc1ccc(-c2ccc(F)cc2F)s1` [Compound 20, 1-(4-Chlorophenyl)-3-[5-(2,4-difluorophenyl)thiophen-2-yl]urea]: the IC50 in data set [1] ([CP] = 100 nM) amounted to 138 nM; in data set [1] ([CP] = 1 uM), 48 nM; in data set [2] it was 84 nM; in data set [3] it was 22 ± 4 nM; in data set [4], 2290 nM. The half-life in data set [5] (pH 7.4, NADPH, mean ± SD, read-out: Half-life) was found to be 72 min. The microsomal CLint in data set [5] (pH 7.4, mean ± SD, read-out: Clearance) amounted to 19.3 ± 1.6 µL/min/mg. In addition, the solubility at 2 h in data set [6] is < 0.5 µM.

With `O=C(Nc1ccc(Cl)cc1)Nc1cc(-c2ccccc2)cs1` [Compound 12, 1-(4-Chlorophenyl)-3-(4-phenylthiophen-2-yl)urea], in data set [1] (compared with compound 2), the “activity in [35S]GTPγS binding assay against mouse CB1R (in words)” value is on record as “weaker potency”. Besides, the IC50 in data set [2] is 667 nM; in data set [3] it was 37 ± 2 nM.

`COc1ccc(-c2ccc(NC(=O)Nc3ccc(Cl)cc3)s2)cc1` [Compound 31, 1-(4-Chlorophenyl)-3-[5-(4-methoxyphenyl)thiophen-2-yl]urea]: the IC50 in data set [1] ([CP] = 100 nM) stood at 110 nM; in data set [1] ([CP] = 1 uM) it was 120 nM; in data set [2], 449 nM; in data set [3], 31 ± 2 nM; in data set [4], 1850 nM.

Take `O=C(Nc1ccc(Cl)cc1)Nc1cccc(-c2cccc(N3CCCC3)n2)c1` [Compound 2, reference compound]: the IC50 in data set [1] ([CP] = 100 nM) turned out to be 244 nM. The IC50 in data set [1] ([CP] = 1 uM) is 127 nM. Besides, the half-life in data set [5] (NADPH, mean ± SD) is 13 min and 13.4 ± 4.1 min. This compound also had a Clearance in data set [5] (mean ± SD) of 113.7 ± 34.4 µL/min/mg. Further, the solubility at 2 h in data set [6] was < 0.5 µM. Moreover, in data set [7], the “Papp A to B” value is recorded as 2.6 ± 0 ×10^−6 cm/s and the “Papp B to A” value is reported as 2.2 ± 0.1 ×10^−6 cm/s.

As to `O=C(Nc1ccc(Cl)cc1)Nc1ccc(-c2ccccc2Cl)s1` [Compound 21, 1-(4-Chlorophenyl)-3-[5-(2-chlorophenyl)thiophen-2-yl]urea], the IC50 in data set [1] ([CP] = 100 nM) worked out at 363 nM; in data set [1] ([CP] = 1 uM) it was 204 nM; in data set [2], 272 nM; in data set [3], 21 ± 2 nM; in data set [4] it was 1190 nM. Moreover, the “inverse agonism in cAMP assay” value in data set [4] (concentrations up to 10 μM) is “displayed inverse agonism”.

Regarding `CN(C)c1cccc(-c2ccc(NC(=O)Nc3ccc(Cl)cc3)s2)c1` [Compound 33, 1-(4-Chlorophenyl)-3-{5-[3-(dimethylamino)phenyl]thiophen-2-yl}urea], the IC50 was 3470 nM in data set [1] ([CP] = 100 nM); 3310 nM in data set [1] ([CP] = 1 uM); 5020 nM in data set [2]; 89 ± 14 nM in data set [3]; > 10000 nM in data set [4].

Consider `O=C(Nc1ccc(Cl)cc1)Nc1ncc(-c2ccccc2)s1` [Compound 14, 1-(4-Chlorophenyl)-3-(5-phenyl-1,3-thiazol-2-yl)urea], for which the “inverse agonism (in words)” value in data set [8] is given as “some degree of inverse agonism”. The concentration for half-maximal inhibition (IC50) in data set [2] was 604 nM; in data set [3], 79 ± 10 nM.

For `COc1ccccc1-c1ccc(NC(=O)Nc2ccc(Cl)cc2)s1` [Compound 29, 1-(4-Chlorophenyl)-3-[5-(2-methoxyphenyl)thiophen-2-yl]urea], the half-maximal inhibitory concentration (IC50) amounted to 2020 nM in data set [2] and 58 nM in data set [3].

Regarding `COc1cccc(-c2ccc(NC(=O)Nc3ccc(Cl)cc3)s2)c1` [Compound 30, 1-(4-Chlorophenyl)-3-[5-(3-methoxyphenyl)thiophen-2-yl]urea], the IC50 in data set [1] ([CP] = 100 nM) stood at 3020 nM; in data set [1] ([CP] = 1 uM) it was 1620 nM; in data set [2], 3280 nM; in data set [3], 61 nM; in data set [4], 6350 nM.

In the case of `O=C(Nc1ccc(Cl)cc1)Nc1ccc(-c2cccnc2)s1` [Compound 34, 1-(4-Chlorophenyl)-3-[5-(pyridin-3-yl)thiophen-2-yl]urea], the values for the IC50 in data set [2] and in data set [3] were 298 nM and 107 ± 6 nM, respectively.

With `O=C(Nc1ccc(Cl)cc1)Nc1ccc(-c2ccc(Cl)c(Cl)c2)s1` [Compound 24, 1-(4-Chlorophenyl)-3-[5-(3,4-dichlorophenyl)thiophen-2-yl]urea], the IC50 in data set [2] is 1720 nM; in data set [3], 111 ± 14 nM.

Take `CC(=O)c1cccc(-c2ccc(NC(=O)Nc3ccc(Cl)cc3)s2)c1` [Compound 26, 3-[5-(3-Acetylphenyl)thiophen-2-yl]-1-(4-chlorophenyl)urea]: the IC50 is 3430 nM in data set [2] and 108 ± 17 nM in data set [3].

Regarding `CS(=O)(=O)c1cccc(-c2ccc(NC(=O)Nc3ccc(Cl)cc3)s2)c1` [Compound 28, 1-(4-Chlorophenyl)-3-[5-(3-methanesulfonylphenyl)thiophen-2-yl]urea], the values for the IC50 in data set [2] and in data set [3] were 3230 nM and 501 ± 58 nM, respectively.

Take `Cc1cccc(-c2ccc(NC(=O)Nc3ccc(Cl)cc3)s2)c1` [Compound 32, 1-(4-Chlorophenyl)-3-[5-(3-methylphenyl)thiophen-2-yl]urea]: the IC50 in data set [2] worked out at 1180 nM; in data set [3] it was 48 ± 8 nM.

As to `O=C(Nc1ccc(Cl)cc1)Nc1csc(-c2ccccc2)c1` [Compound 13, 1-(4-Chlorophenyl)-3-(5-phenylthiophen-3-yl)urea], the IC50 in data set [2] came out at 888 nM; in data set [3], 60 ± 8 nM.

With `O=C(Nc1ccc(Cl)cc1)Nc1ccc(-c2cccc(F)c2)s1` [Compound 19, 1-(4-Chlorophenyl)-3-[5-(3-fluorophenyl)thiophen-2-yl]urea], the IC50 turned out to be 425 nM in data set [2] and 39 ± 6 nM in data set [3].

For the compound `O=C(Nc1ccc(Cl)cc1)N[C@@H]1C[C@@H]1c1ccccc1` (relative stereo) [Compound 16, cis-1-(4-Chlorophenyl)-3-(2-phenylcyclopropyl)urea], the IC50 in data set [2] and in data set [3] was > 10000 nM each time.

`O=C(Nc1ccc(Cl)cc1)N[C@@H]1C[C@H]1c1ccccc1` (racemic) [Compound 15, trans-1-(4-Chlorophenyl)-3-(2-phenylcyclopropyl)urea]: the IC50 was > 10000 nM in data set [2] and 1220 ± 188 nM in data set [3].

What is called IC50 is the midpoint of a concentration-inhibition curve. For orientation: half-life means how long it takes for the measured level to halve. One may read the solubility as how much of the substance goes into solution per volume. Read a low solubility as little dissolved substance.

The record behind these values is patent US20220332695A1, “UREA DERIVATIVES AS CB1 ALLOSTERIC MODULATORS” (RTI INTERNATIONAL, priority 2019, published 2022).
